Data reported in patent publication US8293909B2, “Compounds for the treatment of hepatitis C” (Bristol-Myers Squibb Company, priority 2008, dated 2012).

Key:
HCV replicon cells = experiment: HCV replicon assay (FRET or luciferase readout); format: cell-based; conditions: Table 1
Description: FRET Assay Preparation. To perform the HCV FRET screening assay, 96-well cell culture plates were used. The FRET peptide (Anaspec, Inc.) (Taliani et al., Anal. Biochem. 1996, 240, 60-67) contains a fluorescence donor, EDANS, near one end of the peptide and an acceptor, DABCYL, near the other end. The fluorescence of the peptide is quenched by […] resonance energy transfer (RET) between the donor and the acceptor, but as the NS3 protease cleaves the peptide the products are released from RET quenching and the fluorescence of the donor becomes apparent. The assay reagent was made as follows: 5× cell Luciferase cell culture lysis reagent from Promega (#E153A) diluted to 1× with dH2O, NaCl added to 150 mM final, the FRET peptide diluted to 20 μM final from a 2 mM stock.
To prepare plates, HCV replicon cells, with or without a Renilla luciferase reporter gene, were trypsinized and placed into each well of a 96-well plate with titrated test compounds added in columns 3 through 12; columns 1 and 2 contained a control compound (HCV protease inhibitor), and the bottom row contained cells without compound. The plates were then placed in a CO2 incubator at 37° C.
Assays. Subsequent to addition of the test compounds described above (FRET Assay Preparation), at various times the plate was removed and Alamar blue solution (Trek Diagnostics, #00-100) was added per well as a measure of cellular toxicity. After reading in a Cytoflour 4000 instrument (PE Biosystems), plates were rinsed with PBS and then used for FRET assay by the addition of 30 ul of the FRET peptide assay reagent described above (FRET Assay Preparation) per well. The plate was then placed into the Cytoflour 4000 instrument which had been set to 340 excite/490 emission, automatic mode for 20 cycles and the plate read in a kinetic mode. Typically, the signal to noise using an endpoint analysis after the reads was at least three-fold. Alternatively, after Alamar blue reading, plates were rinsed with PBS, 50 ul of DMEM (high glucose) without phenol red was added and plates were then used for luciferase assay using the Promega Dual-Glo Luciferase Assay System.
Compound analysis was determined by quantification of the relative HCV replicon inhibition and the relative cytotoxicity values. To calculate cytoxicity values, the average Alamar Blue fluorescence signals from the control wells were set as 100% non-toxic. The individual signals in each of the compound test wells were then divided by the average control signal and multiplied by 100% to determine […]. To calculate the HCV replicon inhibition values, an average background value was obtained from the two wells containing the highest amount of HCV protease inhibitor at the end of the assay period. These numbers were similar to those obtained from naïve Huh-7 cells.
The background numbers were then subtracted from the average signal obtained from the control wells and this number was used as 100% activity. The individual signals in each of the compound test wells were then divided by the averaged control values after background subtraction and multiplied by 100% to determine percent activity. EC50 values for a protease inhibitor titration were calculated as the concentration which caused a 50% reduction in FRET or luciferase activity. The two numbers generated for the compound plate, percent cytoxicity and percent activity were used to determine compounds of interest for further analysis.

[1] = molecular target: T1, HCV NS5B RdRp genotype 1b (Hepatitis C virus genotype 1b, UniProt Q9WMX2); experiment: HCV NS5B RdRp enzyme assay (standard / modified); format: biochemical; conditions: Table 1; HCV NS5B genotype 1b
T1 construct: The protein was expressed with an 18 amino acid C-terminal truncation to enhance the solubility; made in house; host or cells: E. coli BL21(DE3), pET21a vector
T1 sequence (Q9WMX2 2420-2992): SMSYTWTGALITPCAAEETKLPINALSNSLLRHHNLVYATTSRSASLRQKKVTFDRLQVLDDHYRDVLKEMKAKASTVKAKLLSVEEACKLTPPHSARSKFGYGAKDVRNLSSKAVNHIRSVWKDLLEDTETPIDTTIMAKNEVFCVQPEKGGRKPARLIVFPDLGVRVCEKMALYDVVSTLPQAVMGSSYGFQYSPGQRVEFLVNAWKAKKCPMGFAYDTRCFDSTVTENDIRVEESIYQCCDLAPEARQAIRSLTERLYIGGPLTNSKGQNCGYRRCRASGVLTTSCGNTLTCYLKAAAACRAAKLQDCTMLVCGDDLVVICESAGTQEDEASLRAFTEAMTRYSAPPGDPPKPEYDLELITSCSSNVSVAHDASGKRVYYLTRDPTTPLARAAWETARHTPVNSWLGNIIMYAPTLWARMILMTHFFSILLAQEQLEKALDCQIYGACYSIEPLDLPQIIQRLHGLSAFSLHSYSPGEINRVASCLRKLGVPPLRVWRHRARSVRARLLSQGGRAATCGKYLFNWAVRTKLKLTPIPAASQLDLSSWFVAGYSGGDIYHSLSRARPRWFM
Procedure: HCV NS5B RdRp cloning, expression, and purification. The cDNA encoding the NS5B protein of HCV, genotype 1b, was cloned into the pET21a expression vector. The protein was expressed with an 18 amino acid C-terminal truncation to enhance the solubility. The E. coli competent cell line BL21(DE3) was used for expression of the protein. Cultures were grown at 37° C. for ˜4 hours until the cultures reached an optical density of 2.0 at 600 nm. The cultures were cooled to 20° C. and induced with 1 mM IPTG. Fresh ampicillin was added to a final concentration of 50 μg/ml and the cells were grown overnight at 20° C.
Cell pellets (3 L) were lysed for purification to yield 15-24 mgs of purified NS5B. The lysis buffer consisted of 20 mM Tris-HCl, pH 7.4, 500 mM NaCl, 0.5% triton X-100, 1 mM DTT, 1 mM EDTA, 20% glycerol, 0.5 mg/ml lysozyme, 10 mM MgCl2, 15 ug/ml deoxyribonuclease I, and Complete™ protease inhibitor tablets (Roche). After addition of the lysis buffer, frozen cell pellets were resuspended using a tissue homogenizer. To reduce the viscosity of the sample, aliquots of the lysate were sonicated on ice using a microtip attached to a Branson sonicator. The sonicated lysate was centrifuged at 100,000×g for 1 hr at 4° C. and filtered through a 0.2 μm filter unit (Corning).
The protein was purified using three sequential chromatography steps: Heparin sepharose CL-6B, polyU sepharose 4B, and Hitrap SP sepharose (Pharmacia). The chromatography buffers were identical to the lysis buffer but contained no lysozyme, deoxyribonuclease I, MgCl2 or protease inhibitor and the NaCl concentration of the buffer was adjusted according to the requirements for charging the protein onto the column. Each column was eluted with a NaCl gradient which varied in length from 5-50 column volumes depending on the column type. After the final chromatography step, the resulting purity of the enzyme is >90% based on SDS-PAGE analysis. The enzyme was aliquoted and stored at −80° C.
Standard HCV NS5B RdRp enzyme assay. HCV RdRp genotype 1b assays were run in a final volume of 60 μl in 96 well plates (Costar 3912). The assay buffer is composed of 20 mM Hepes, pH 7.5, 2.5 mM KCl, 2.5 mM MgCl2, 1 mM DTT, 1.6 U RNAse inhibitor (Promega N2515), 0.1 mg/ml BSA (Promega R3961), and 2% glycerol. All compounds were serially diluted (3-fold) in DMSO and diluted further in water such that the final concentration of DMSO in the assay was 2%. HCV RdRp genotype 1b enzyme was used at a final concentration of 28 nM. A polyA template was used at 6 nM, and a biotinylated oligo-dT12 primer was used at 180 nM final concentration. Template was obtained commercially (Amersham 27-4110). Biotinylated primer was prepared by Sigma Genosys. 3H-UTP was used at 0.6 μCi (0.29 μM total UTP). Reactions were initiated by the addition of enzyme, incubated at 30° C. for 60 min, and stopped by adding 25 μl of 50 mM EDTA containing SPA beads (4 μg/μl, Amersham RPNQ 0007). Plates were read on a Packard Top Count NXT after >1 hr incubation at room temperature.
Modified HCV NS5B RdRp enzyme assay. A modified enzyme assay was performed essentially as described for the standard enzyme assay except for the following: The biotinylated oligo dT12 primer was precaptured on streptavidin-coated SPA beads by mixing primer and beads in assay buffer and incubating at room temperature for one hour. Unbound primer was removed after centrifugation. The primer-bound beads were resuspended in 20 mM Hepes buffer, pH 7.5 and used in the assay at final concentrations of 20 nM primer and 0.67 μg/μl beads. Order of addition in the assay: enzyme (14 nM) was added to diluted compound followed by the addition of a mixture of template (0.2 nM), 3H-UTP (0.6 μCi, 0.29 μM), and primer-bound beads, to initiate the reaction; concentrations given are final. Reactions were allowed to proceed for 4 hours at 30° C.
IC50 values for compounds were determined using seven different [I]. […]

Compound | EC50 (HCV replicon cells; Hepatitis C virus) [nM] | IC50 [1] [nM] | EC50 (HCV replicon cells) [nM]
CNC(=O)c1c(-c2ccc(F)cc2)nn2ccc(-c3cccc(C(=O)NC4(c5ccccc5)CCC4)c3)cc12 | 2 to 250 | 2 to 250 | –
CNC(=O)c1c(-c2ccc(F)cc2)nn2ccc(-c3cccc(C(=O)NC4(c5ccccc5)CC4)c3)cc12 | 2 to 250 | 2 to 250 | –
CNC(=O)c1c(-c2ccc(F)cc2)nn2cc(N(CCO)S(C)(=O)=O)c(-c3cc(C(=O)NC4(c5ccccc5)CC4)ccc3C)cc12 | – | 2 to 250 | –
CNC(=O)c1c(-c2ccc(F)cc2)nn2cc(N(CCO)S(C)(=O)=O)c(-c3cc(C(=O)NCC(C)C)ccc3Cl)cc12 | 250 to 1000 | 2 to 250 | –
CNC(=O)c1c(-c2ccc(F)cc2)nn2cc(N(CCO)S(C)(=O)=O)c(C3CC3)cc12 | 1000 to 10000 | 2 to 250 | –
CNC(=O)c1c(-c2ccc(F)cc2)nn2cc(N(CCOC)S(C)(=O)=O)c(-c3cccc(C(=O)NC(C)(C)c4ccccc4)c3)cc12 | 2 to 250 | 2 to 250 | –
CNC(=O)c1c(-c2ccc(F)cc2)nn2ccc(-n3cc(C(=O)NC(C)(C)c4ccccc4)ccc3=O)cc12 | 250 to 1000 | 2 to 250 | –
CNC(=O)c1c(-c2ccc(F)cc2)oc2ncc(-c3cccc(C(=O)NC(C)(C)c4ccccc4)c3)cc12 | 2 to 250 | 2 to 250 | –
CNC(=O)c1c(-c2ccc(F)cc2)nc2ccc(-c3cc(C(=O)NC(C)(C)c4ccccc4)ccc3OC)cn12 | 2 to 250 | 2 to 250 | –
CNC(=O)c1c(-c2ccc(F)cc2)nc2ccc(-c3cc(C(=O)NC4(c5ccccn5)CC4)ccc3C)cn12 | 2 to 250 | 2 to 250 | –
CNC(=O)c1c(-c2ccc(F)cc2)oc2ncc(-c3cccc(C(=O)NC4(c5ccccc5)CC4)c3)cc12 | 2 to 250 | 2 to 250 | –
CNC(=O)c1c(-c2ccc(F)cc2)nc2ccc(-c3cc(C(=O)NC(C)(C)c4ccccc4)ccc3Cl)cn12 | 2 to 250 | 2 to 250 | –
CNC(=O)c1c(-c2ccc(F)cc2)nc2ccc(-c3cc(C(=O)NC(C)(C)c4ccccc4)ccc3C)cn12 | 2 to 250 | 2 to 250 | –
CNC(=O)c1c(-c2ccc(F)cc2)nn2cc(NS(C)(=O)=O)c(-c3cccc(C(=O)NC(C)(C)c4ccccc4)c3)cc12 | 1000 to 10000 | 2 to 250 | –
CNC(=O)c1c(-c2ccc(F)cc2)nn2cc(N(CC3CC3)S(C)(=O)=O)c(-c3cccc(C(=O)NC(C)(C)c4ccccc4)c3)cc12 | 2 to 250 | 2 to 250 | –
CNC(=O)c1c(-c2ccc(F)cc2)nn2ccc(-c3cc(C(=O)NC(C)(C)C)ccc3OC)cc12 | 250 to 1000 | 2 to 250 | –
CNC(=O)c1c(-c2ccc(F)cc2)oc2ncc(-c3cccc(C(=O)NC(C)(C)C)c3)cc12 | 2 to 250 | 2 to 250 | –
CNC(=O)c1c(-c2ccc(F)cc2)nc2ccc(-c3ccc(-c4cccnc4)c(C(=O)NCC(C)C)c3)cn12 | 250 to 1000 | – | –

Compound | EC50 (HCV replicon cells; Hepatitis C virus) [nM] | IC50 [1] [nM] | EC50 (HCV replicon cells) [nM]
CNC(=O)c1c(-c2ccc(F)cc2)nn2ccc(-c3cc(F)cc(C(=O)NC4(c5ccccc5)CC4)c3)c(F)c12 | > 10000 | – | –
CNC(=O)c1c(-c2ccc(F)cc2)nn2ccc(-c3cc(F)cc(C(=O)NC4(c5ccccn5)CC4)c3)c(F)c12 | 1000 to 10000 | – | –
CNC(=O)c1c(-c2ccc(F)cc2)nn2ccc(-c3cc(C(=O)NC4(c5ccccn5)CC4)cc(F)c3C)c(F)c12 | 2 to 250 | – | –
CNC(=O)c1c(-c2ccc(F)cc2)nn2ccc(-c3cc(C(=O)NC4(c5nc(C)no5)CC4)cc(F)c3C)c(F)c12 | 2 to 250 | – | –
CNC(=O)c1c(-c2ccc(F)cc2)nn2ccc(-c3cc(C(=O)NC4(c5nnc(-c6ccccc6)[nH]5)CC4)c(OC)cc3C)c(F)c12 | 2 to 250 | – | –
CNC(=O)c1c(-c2ccc(F)cc2)nn2ccc(-c3cc(C(=O)NC4(c5ccccc5)CC4)c(OC)nc3C)c(F)c12 | 2 to 250 | – | –
CNC(=O)c1c(-c2ccc(F)cc2)nn2ccc(-c3cc(C(=O)NC4(c5ccccn5)CC4)c(OC)nc3C)c(F)c12 | 2 to 250 | – | –
CNC(=O)c1c(-c2ccc(F)cc2)nn2ccc(-c3cc(C(=O)NC4(c5ccccc5)CC4)c(OC(F)F)nc3C)c(F)c12 | 2 to 250 | – | –
CNC(=O)c1c(-c2ccc(F)cc2)nn2ccc(-c3cc(C(=O)NC4(c5ccccn5)CC4)c(OC(F)F)nc3C)c(F)c12 | 2 to 250 | – | –
CNC(=O)c1c(-c2ccc(F)cc2)nn2ccc(-c3cc(C(=O)NC4(c5ncccn5)CC4)c(OCC4CCOCC4)nc3C)c(F)c12 | 2 to 250 | – | –
CNC(=O)c1c(-c2ccc(F)cc2)nn2ccc(-c3cc(C(=O)NC4(c5ccccn5)CC4)c(OCC4CCOCC4)nc3C)c(F)c12 | 2 to 250 | – | –
CNC(=O)c1c(-c2ccc(F)cc2)nn2ccc(-c3cc(C(=O)NC4(c5cc(F)ccn5)CC4)c(OC)nc3C)c(F)c12 | 2 to 250 | – | –
CNC(=O)c1c(-c2ccc(F)cc2)nn2ccc(-c3cc(C(=O)NC4(c5cnccn5)CC4)c(OC)cc3C)c(F)c12 | 2 to 250 | – | –
CNC(=O)c1c(-c2ccc(F)cc2)nc2ccc(-c3ccc(-c4ccccc4Cl)c(C(=O)NCC(C)C)c3)cn12 [drawing 121] | 2 to 250 | – | –
CNC(=O)c1c(-c2ccc(F)cc2)nc2ccc(-c3cc(C(=O)NC4(c5ccccn5)CC4)c(OC)cc3Cl)cn12 [drawing 124] | 250 to 1000 | – | –
CNC(=O)c1c(-c2ccc(F)cc2)nn2ccc(-c3cc(C(=O)NC4(c5ccccc5)CC4)cc(F)c3C)c(F)c12 [drawing 138] | 2 to 250 | – | –
CNC(=O)c1c(-c2ccc(F)cc2)nc2ccc(C3CC3C(=O)NC3(c4ccccn4)CC3)cn12 (stereo not drawn) [drawing 160] | – | – | > 10000
